# Key:
# [1] = test system: lipid peroxide radical production; assay: inhibition of lipid peroxide radical production (tert-butyl hydroperoxide, bacterial growth readout); type: cell-based, Staphylococcus aureus 3A; parameters: key to growth of the bacterium (activity of inhibiting lipid peroxide radical production): + represents the sample in which the growth of the bacterium was observed; −represents the sample in which the growth of the bacterium was not observed
# Description: Staphylococcus aureus 3A (National Collection Of Type Culture, NCTC 8319) was inoculated into 5 ml of brain heart infusion medium (manufactured by Difco, 0037-17-8) and cultured at 37° C. overnight. The bacterial cells were collected by centrifugation, washed with phosphate buffered saline 3 times and then suspended in phosphate buffered saline at a concentration of 1×10^7 colony forming units/ml. A mixture of 100 μl of the cell suspension, 100 μl of an aqueous sample solution, 100 μl of aqueous 1 mg/ml methemoglobin (manufactured by Sigma M9250) solution, 600 μl of phosphated buffered saline and 100 μl of aqueous 50 mM tert-butyl hydroperoxide (manufactured by Katayama Kagaku, 03-4990) solution were reacted at 37° C. for 30 minutes. To the reaction mixture was added 1 ml of 2×NMP medium [prepared by dissolving 8 g of nutrient broth (manufactured by Difco, 0003-01-6), 5 g of trypton (manufactured by Difco, 0123-17-3), 5 g of NaCl, 10 g of mannitol (manufactured by Nacalai Tesque, 213-03) and 0.035 g of phenol red (manufactured by Nacalai Tesque, 268-07) in distilled water to make the volume up to 500 ml. The pH was adjusted to 7.5 with NaOH and then the mixture was sterilized by filtration] to stop the reaction. The resultant mixture was diluted every 3-folds with NMP medium (prepared by diluting 2×NMP medium 2-folds with sterilized water) to prepare 12 serial dilutions and 160 μl of each dilution was placed in each well of a 96-well microtiter plate. The plate was incubated at 37° C. overnight.
# In Table 14, + represents the sample in which the growth of the bacterium was observed, and −represents the sample in which the growth of the bacterium was not observed. The concentration shown in the uppermost line of the table is that of the sample in the reaction mixture in which the sample was reacted with tert-butyl hydroperoxide and the bacterial cells at 37° C. for 30 minutes.
# RAW264.7 = assay: antiproliferation assay, MTT method; type: cell-based, mouse; conditions: for dilution rate of the dilution added to the group whose absorbance at 590 nm was less than one-half of that of the control group: dilution rate 1 corresponds to 5 mM in medium; for IC50: read-out: IC50 (concentration required for 50% proliferation inhibitory rate)
# Description: Each fraction was sterilized by filtration and its 10 μl portion was placed in a well of a 96 well microtiter plate. […] The cell morphology was observed under an optical microscope. […] The absorbance at 590 nm was measured to determine a cell proliferation rate. (2) A 50 mM solution of agarobiose, agarotetraose or agarohexaose obtained in Example 3-(1) was sterilized by filtration and diluted 2-, 4-, 8-, 16-, 32-, 64- and 128-folds with sterilized water. […] [table] The number in Table 3 represents the dilution rate of the dilution added to the group whose absorbance at 590 nm was less than one-half of that of the control group to which water was added. […] Then, for agarobiose, agarotetraose and agarohexaose, the concentrations required for 50% proliferation inhibitory rate (IC50) are calculated based on the change in the absorbance at 590 nm, and are shown in Table 4.
# [2] = test system: Mouse melanoma cell B16BL6; assay: inhibition of melanin production, absorbance at 400 nm; type: cell-based
# Description: Mouse melanoma cell B16BL6 suspended in RPMI-1640 containing 10% FBS was placed in a 6 well plate at a concentration of 5×10^4 cells/2 ml medium/well and incubated at 37° C. On the 2nd day, 100 μl of agarobiose solution (2 mg/ml to 0.2 mg/ml) was added thereto, and on the 7th day, the medium was changed and, at the same time, 100 μl of agarobiose solution (2 mg/ml to 0.2 mg/ml) was added thereto. On the 8th day, the cells were collected, DNA, RNA and protein were decomposed, and then the absorbance at 400 nm was measured to examine an activity of inhibiting melanin production.
# Namely, after removing the medium by suction, 0.3 ml of 0.25% trypsin dissolved in 20 mM EDTA solution was added to each well and the plate was incubated at 37° C. for 10 minutes. Then, 2 ml of the fresh medium was added to the well and the cells were suspended. The suspension was collected into a test tube. The medium was then removed by centrifugation and the cells were suspended in 2 ml of PBS and centrifuged again. After removing the supernatant, 30 μl of 50 mM sodium acetate buffer (pH 5.0) containing 5 mM manganese chloride and 1 μl of 70,000 U/ml DNase I (manufactured by Takara Shuzo) were added to the cells and thoroughly mixed. The mixture was incubated at 37° C. for 2 hours to decompose DNA. Then, 1 μl of 10 mg/ml ribonuclease A (manufactured by Sigma) was added to the mixture and the resultant mixture was incubated at 50° C. for 1 hour to decompose RNA. Finally, 100 mM Tris-hydrochloric acid buffer (pH 7.8) containing 100 μg/ml proteinase K (manufactured by Sigma), 0.1% Triton x and 10 mM EDTA was added thereto to make the total volume up to 200 μl for 2×10^6 cells, and the mixture was incubated at 37° C. for 16 hours and then the absorbance at 400 nm was measured.
# [3] = 0.1 mM sample in the reaction mixture
# [4] = 1 mM sample in the reaction mixture
Compound,activity of inhibiting lipid peroxide radical production (in words) [1],"growth of the bacterium (activity of inhibiting lipid peroxide radical production) [1, 3]","growth of the bacterium (activity of inhibiting lipid peroxide radical production) [1, 4]",dilution rate of the dilution added to the group whose absorbance at 590 nm was less than one-half of that of the control group (RAW264.7),IC50 (RAW264.7),Absorbance at 400 nm mean ([2]; agarobiose 10 μg/ml),Absorbance at 400 nm mean ([2]; agarobiose 50 μg/ml),Absorbance at 400 nm mean ([2]; agarobiose 100 μg/ml),activity of inhibiting melanin production (in words) ([2]; agarobiose at 50 and 100 μg/ml)
"OC[C@H]1O[C@@H](O[C@H]2[C@H]3OC[C@@H]2OC(O)[C@H]3O)[C@H](O)[C@@H](O)[C@H]1O (mixture of isomers) [Agarobiose, agarobiose]",strong activity,+,+,16,179 µM,0.521,0.392,0.383,recognized
"OC[C@H]1O[C@@H](O[C@H]2[C@H]3OC[C@@H]2O[C@@H](O[C@H]2[C@@H](O)[C@@H](CO)O[C@@H](O[C@H]4[C@H]5OC[C@@H]4OC(O)[C@H]5O)[C@@H]2O)[C@H]3O)[C@H](O)[C@@H](O)[C@H]1O (some centres unmarked) [Agarotetraose, agarotetraose]",strong activity,−,+,32,133 µM,,,,

# Source: US6911432B2, “Drugs, foods or drinks with the use of algae-derived physiologically active substances” (priority 1997, dated 2005)
